In patent publication US7384952B2, “Pyrazolopyrimidine compound and a process for preparing the same” (Mitsubishi Tanabe Pharma Corporation, priority 2003, dated 2008):

Molecular target: SK channel
Test: competitive apamin-binding inhibition assay (same manner as WO02/079189, Experiment 1)
Conditions: competitive binding assay against apamin, a selective SK channel blocker; read-out: apamin-binding inhibitory activity (IC50)

CCOc1cccc(Cn2ncc3c(N4CCN(C(=O)c5ccc(N(CCN(C)C)C(=O)C6CC6)cc5)CC4)ncnc32)c1 [1-(3-ethoxybenzyl)-4-[4-[4-[N-(cyclopropyl-carbonyl)-N-[2-(dimethylamino)ethyl]amino]benzoyl]piperazin-1-yl]-1H-pyrazolo[3,4-d]pyrimidine]
IC50: 50 nM
